Here are results for two compounds from article PMC3723855, “R31C GNRH1 Mutation and Congenital Hypogonadotropic Hypogonadism” (PLoS ONE, 2013).

“Also recorded” adds a separate entry of the source.

For test [1], the target named is T1, human GnRH-R (Homo sapiens, UniProt P30968).
T1 sequence (P30968 1-328): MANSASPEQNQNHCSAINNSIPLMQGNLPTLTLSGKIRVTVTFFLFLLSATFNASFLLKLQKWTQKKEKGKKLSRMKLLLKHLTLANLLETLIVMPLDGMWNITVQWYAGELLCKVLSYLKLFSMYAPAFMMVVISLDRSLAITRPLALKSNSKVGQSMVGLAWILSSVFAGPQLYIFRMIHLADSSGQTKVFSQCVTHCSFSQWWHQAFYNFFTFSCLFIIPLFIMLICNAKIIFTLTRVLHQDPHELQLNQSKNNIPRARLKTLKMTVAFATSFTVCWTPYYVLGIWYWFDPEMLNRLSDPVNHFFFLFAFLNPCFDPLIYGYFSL
As to the kind of experiment: Competition radioligand binding, 125I-[His5, D-Tyr6]-GnRH, transfected COS-7 cells. As for the experimental part: Figure 2 Binding of WT and R31C GnRH to the GnRH receptor (GnRH-R). […] Data are the means of two experiments performed in triplicate.
The high affinity GnRH analog, [His^5, D-Tyr^6]-GnRH was radio-iodinated as previously described and purified using Sephadex chromatography. COS-7 cells were transiently transfected with a human GnRH-R DNA construct containing the human GnRH-RII carboxy-terminal to enhance expression using 6 µg of DNA and 30 µl FuGene HD (Promega Corporation, Madison, WI) per 10 cm dish and seeded into 12-well plates. […] Cells were washed with phosphate-buffered saline (2×1 ml) and lysed with NaOH (1 ml, 0.1 M). Cell-bound radioactivity was counted in a gamma counter and IC-50 values were calculated using Graphpad Prism (GraphPad Software Inc, San Diego).

Another test relates to LH (LbetaT2 cells). The experiment in a line: LH secretion from LbetaT2 cells. The class given is cell-based, murine. The following applies: for LH secretion versus WT GnRH: 10 nM R31C; for LH secretion over baseline: 10 nM, four experiments in duplicates, p<0.001 for WT, p = 0.042 for R31C. As for the experimental part:
Figure 7 Effects of treatments on lhb transcription and LH secretion. (A) LbetaT2 cells were starved overnight in serum-free DMEM and treated either by 10 nM WT, R31C, 10 nM WT +10 nM R31C peptides or vehicle. After five hours treatment cells were lysed for RNA extraction (Trizol®). Mouse lhb levels were analyzed by quantitative real time RT-qPCR. Values are expressed as individual ratios on 18S and represented as fold induction on vehicle as means ± SEM, **p<0.01. This experience was conducted n = 7 times in duplicates. (B) LH concentrations from LbetaT2 cells culture media. Cells were starved overnight in serum-free DMEM and incubated with 10 nM WT, 10 nM R31C, 10 nM WT +10 nM R31C, or vehicle for 5 hours. LH levels were measured by a combined rat/mouse RIA. Values are expressed as individual values and as means ± SEM, *p<0.05, ***p<0.001. The experiment was conducted four times and each sample was assayed in duplicates.
LbetaT2 cells were starved overnight in serum-free DMEM. The test day cells were exposed to 10 nM WT, R31C, the combination of 10 nM of each peptide or vehicle during five hours. Cell culture supernatants were collected and rapidly stored at −80°C. In cell culture media, LH concentration was measured using a previously described […] method with reagents supplied by Dr. Parlow (National Hormone and Peptide Program, Harbor-UCLA Medical Center, Torrance, CA). The minimum detectable LH concentration was 0.2 ng/ml, and the interassay coefficient of variation was less than 10%.

The target of test [2] is T1, human GnRH-R. The experiment in a line: Inositol phosphate (IP) accumulation in COS-7 cells transfected with human GnRH-R. Format: cell-based. Set-up: host or cells: COS-7. As for the experimental part: Figure 6 IP accumulation. (A) COS-7 cells were transiently transfected with human GnRH-R expression vector and washed before the addition of myo-[2-^3H]Inositol. […] This experience was conducted three times each in triplicate. (B) Representation of individual values of EC-50 (calculated with Arcsin “P” root transformation) from n = 3 dose-response experiments.
COS-7 cells were transiently transfected by electroporation with human GnRH-R DNA (10 µg/15 cm dish), seeded into 12-well plates and radiolabelled by overnight incubation with myo-[3H]Inositol (0.5 µCi/well, American Radiolabeled Chemicals, St Louis, Mo). […] Incubations were stopped by removal of the medium and cells were lysed by addition of formic acid (1 ml, 10 mM). IP were extracted from cell lysates using Dowex 1 X8-200 chromatography and counted using a liquid scintillation counter (Pack ard). EC-50 and Emax values were calculated using Graphpad Prism (GraphPad Software Inc).

Another test concerns GNRHR. The experiment in a line: SRE-coupled luciferase after pulsatile exposure (four 90 min-spaced pulses), HEK293T cells. The class given is cell-based, human. The following applies: 5 minutes each, 10 nM WT, 10 nM R31C or 10+10 nM, harvested five hours after last pulse, three experiments, n = 8 replicates. As for the experimental part: Supplementary file pone.0069616.s002.ppt: Figure S2 Luciferase activity after pulsatile exposure. HEK293T cells were transiently transfected with GNRHR and SRE-coupled luciferase reporter gene, and then exposed to four 90 min-spaced pulses of 10 nM WT, 10 nM […] and 10+10 nM WT+[…]. After 5 minutes exposure to each ligand, cells were washed, and a subsequent pulse was given 90 minutes after. Five hours after the last pulse, cells were harvested for luciferase assay. Luciferase activity arbitrary units obtained by luminometry (a.l.u.) are shown as ratio on beta-galactosidase activity by optical density (used as transfection efficiency internal control). This experience was conducted three times (n = 8 replicates for each experiment). (PPT) Click here for additional data file.

Setting [3] is: R31C 10^−10 M to 10^−6 M in combination with WT GnRH at 10^−9 M.

In general, IC50 refers to the concentration at which inhibition is half-maximal. Low values mean higher potency, high ones lower potency.

In turn, `CC(C)C[C@H](NC(=O)CNC(=O)[C@H](Cc1ccc(O)cc1)NC(=O)[C@H](CO)NC(=O)[C@H](Cc1c[nH]c2ccccc12)NC(=O)[C@H](Cc1c[nH]cn1)NC(=O)[C@@H]1CCC(=O)N1)C(=O)N[C@@H](CS)C(=O)N1CCC[C@H]1C(=O)NCC(N)=O` [R31C GnRH] yielded an IC50 at human GnRH-R [1] (COS-7 transfected with human GnRH-R construct, 125I-[His5, D-Tyr6]-GnRH, 4 h, 4°C, two experiments performed in duplicate) of 0.85 µM. On human GnRH-R [1] (setting [3]), the “impact of added R31C GnRH on receptor binding with WT GnRH” value was “failed to have any impact”. In addition, the “activity in receptor binding” value at human GnRH-R [1] (R31C GnRH) is listed as “very low activity”. Also, the “affinity for GnRH-R lower than that of WT GnRH” value at human GnRH-R [1] (R31C GnRH versus WT GnRH, COS-7 cells) is given as “more than 100 fold”. Moreover, in the test on LH (LbetaT2 cells) (5 hours), the “LH secretion versus WT GnRH” value was “very low activity” and the “LH secretion over baseline” value is given as “significantly stimulated LH secretion”. In addition, the “LH secretion versus WT GnRH” value in the test on LH (LbetaT2 cells) (5 hours, listed as R31C peptide) is “weaker responses”. The “influence of R31C GnRH on stimulation of LH secretion by WT GnRH” value in the test with LH (LbetaT2 cells) (10 nM WT + 10 nM R31C, 5 hours) was “unable to influence”. Further, the “impact of added R31C GnRH on LH secretion with WT GnRH” value with LH (LbetaT2 cells) (setting [3]) was “failed to have any impact”. In addition, the “maximal IP / agonism” value at human GnRH-R [2] (COS-7, R31C compared with WT) is recorded as “full agonist; also recorded: maximal IP generated by both ligands was the same; also recorded: able to elicit the same maximal stimulation”. In addition, the EC50 on human GnRH-R [2] (COS-7, human GnRH-R, 1 hour, n = 3 dose-response experiments each in triplicate, Arcsin "P" root transformation, spread not defined, read-out: EC-50, IP accumulation (Fig. 6B)) amounted to 0.199 ± 0.0759 µM. In addition, the “impact of added R31C GnRH on IP generation with WT GnRH” value on human GnRH-R [2] (setting [3]) is given as “failed to have any impact”. Further, the “IP activity / potency” value on human GnRH-R [2] (R31C GnRH versus WT) is reported as “very low activity”. In addition, the “less potent than WT GnRH, IP accumulation” value at human GnRH-R [2] (R31C GnRH versus WT GnRH, p<0.01) is listed as greater than 100 fold.

For `CC(C)C[C@H](NC(=O)CNC(=O)[C@H](Cc1ccc(O)cc1)NC(=O)[C@H](CO)NC(=O)[C@H](Cc1c[nH]c2ccccc12)NC(=O)[C@H](Cc1c[nH]cn1)NC(=O)[C@@H]1CCC(=O)N1)C(=O)N[C@@H](CCCNC(=N)N)C(=O)N1CCC[C@H]1C(=O)NCC(N)=O` [WT GnRH, reference compound], the “luciferase activity after pulsatile administration” value with GNRHR is listed as “more potent than R31C GnRH”. Moreover, the “LH secretion over baseline” value in the test on LH (LbetaT2 cells) (5 hours) is recorded as “strongly stimulated LH secretion over baseline”.
